The target in one test is T1, CCKA (Cavia porcellus, UniProt Q63931).
T1 construct: The pancreatata were homogenised in 40 ml ice-cold HEPES buffer using a polytron; from tissue; host or cells: pancreas membranes of male Dunkin Hartley guinea-pigs
T1 sequence (Q63931 1-430): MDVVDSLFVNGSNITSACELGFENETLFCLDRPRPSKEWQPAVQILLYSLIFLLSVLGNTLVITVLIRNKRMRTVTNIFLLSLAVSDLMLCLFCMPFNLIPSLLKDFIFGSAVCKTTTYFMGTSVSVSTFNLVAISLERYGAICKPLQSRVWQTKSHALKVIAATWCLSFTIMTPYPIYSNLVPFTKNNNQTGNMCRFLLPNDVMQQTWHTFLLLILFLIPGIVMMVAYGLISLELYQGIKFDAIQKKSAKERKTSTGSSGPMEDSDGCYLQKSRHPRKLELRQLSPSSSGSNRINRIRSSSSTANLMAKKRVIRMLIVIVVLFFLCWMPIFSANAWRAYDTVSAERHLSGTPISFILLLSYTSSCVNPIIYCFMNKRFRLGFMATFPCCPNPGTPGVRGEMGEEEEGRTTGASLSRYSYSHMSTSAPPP
Nature of the test: CCKA radioligand binding assay in guinea-pig pancreas membranes ([125I]-CCK8(S)). As to conditions: PD134,308 present, 150 minutes at 21±3°; for Ki: read-out: CCKA pKi (converted). The procedure:
The compounds of the examples were also tested in a CCKA as follows:
The pancreatata were removed from male guinea-pigs (200-300 g; Dunkin Hartley) and placed in ice-cold HEPES buffer (pH 7.2 @ 21 ±3). The pancreatata were homogenised in 40 ml ice-cold HEPES buffer using a polytron (Brinkmann, PT10, setting 10) 4×1 second. The homogenate was centrifuged at 39,800 g for 15 min at 4°. The supernatant was discarded and the pellet re-suspended using a Teflon-in-glass homogeniser in 20 volumes of fresh buffer and re-centrifuged as above.
The final pellet was re-suspended using a Teflon-in-glass homogeniser to a tissue concentration of 1 mg.ml^-1 (original wet weight), and filtered through 500 μm pore-size Nytex mesh.
The membranes (400 μl; containing 0.375 μM PD134,308) are incubated for 150 minutes at 21±3° in a final volume of 0.5 ml with HEPES buffer containing [^125 I]-CCK8 (S) (50 μl; […]) and competing compound. Total and non-specific binding of [^125 I]-CCK8 (S) are defined using 50 μl of buffer and 50 μl of 100 nM L-364,718 respectively. The assay is terminated by rapid filtration through pre-soaked Whatman GF/B filters using a Brandell Cell Harvester. The filters were washed (3×3 ml) with ice-cold 50 mM Tris HCl (pH 7.4 at 4°) and bound radioactivity is determined by counting (1 min) in a gamma counter.

Another test deals with T2, CCKB receptor (Mus musculus, UniProt P56481).
T2 construct: The cortex was dissected, weighed and homogenised in 40ml ice-cold buffer; tissue Charles River (supplier of the CD1 mice); host or cells: cerebral cortex membranes of male CD1 mice
T2 sequence (P56481 1-453): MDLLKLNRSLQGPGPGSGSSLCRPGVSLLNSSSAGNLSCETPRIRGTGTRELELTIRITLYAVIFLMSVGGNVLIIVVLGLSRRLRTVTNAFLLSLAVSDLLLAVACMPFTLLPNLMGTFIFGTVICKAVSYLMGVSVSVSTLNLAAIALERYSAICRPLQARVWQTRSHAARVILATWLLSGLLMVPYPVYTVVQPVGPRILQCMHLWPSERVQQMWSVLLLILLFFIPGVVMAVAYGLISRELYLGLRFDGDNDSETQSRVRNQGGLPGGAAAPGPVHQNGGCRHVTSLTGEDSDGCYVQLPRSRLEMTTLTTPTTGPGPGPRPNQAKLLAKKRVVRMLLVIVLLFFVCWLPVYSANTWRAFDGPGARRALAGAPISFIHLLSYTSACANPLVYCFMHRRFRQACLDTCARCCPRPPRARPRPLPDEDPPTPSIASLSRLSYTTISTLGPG
As to the kind of experiment: CCKB receptor radioligand binding assay in mouse cortical membranes ([125I]-CCK8S). As to conditions: [125I]-CCK8S 200 pM, 150 min at 21±3°; for Ki: read-out: CCKB pKi (converted). The protocol:
The compounds of the examples were tested for binding at the CCKB receptor in mouse cortical membranes by means of a radioligand binding assay. The procedure was as follows:
The whole brains from male mice (CD1 22-25 g; Charles River) were removed and placed in ice-cold buffer (pH7.2 @ 21±3°) of the following composition (mM); 10 HEPES, 130 NaCl, 4.7 KCl, 5 MgCl2, 1 EDTA and containing 0.25g.^-1 bacitracin. The cortex was dissected, weighed and homogenised in 40ml ice-cold buffer using a Teflon-in-glass homogeniser. The homogenate was centrifuged at 39,800g for 20 min at 4°, the supernatant discarded and the pellet resuspended by homogenisation in fresh buffer. The homogenate was recentrifuged (39,800 g; 20 min @ 4°) and the final pellet was resuspended in HEPES buffer to give a tissue concentration of 2 mg.ml^-1 (original wet weight).
The membranes ([…]) were incubated for 150 min at 21±3° in a final volume of 0.5 ml with HEPES buffer containing [^125 I]-CCK8S (0.05 ml; 200 pM NEN 2200 Ci.mmol^-1) and competing compound. Total and non-specific binding of [^125 I]-CCK8S were defined using 0.05 ml of buffer and 0.05 ml of […] L-365,260, respectively. The assay was terminated by rapid filtration through pre-soaked Whatman GF/B filters using a Brandell Cell harvester. The filters were washed (3×3 ml) with ice-cold 50 mM Tris-HCl (pH7.4 @ 4° C.) and bound radioactivity determined by counting (1 min.) in a gamma-counter.

In the case of “1/2-(1-adamantanemethylaminocarbonyl)-naphthoic acid Regioisomer 2 [Example 22]”, at CCKA, the “CCKA pKi” value worked out at 5.4. Moreover, the “CCKB pKi” value on CCKB receptor is on record as 5.9. For “5-(1S-(3,5-diethoxycarbonylphenylaminocarbonyl)-2-phenylethylaminocarbonyl)-6-(1-adamantanemethylaminocarbonyl)-indole and regioisomer with substituents at positions 5 and 6 reversed [Example 66]”, at CCKA, the “CCKA pKi” value came out at 5.0. For the same compound, at CCKB receptor, the “CCKB pKi” value was 5.8.

As to “5-(1S-(trans3,4-dimethoxycarbonylpyrrolidinocarbonyl)-2-phenylethylaminocarbonyl)-6-(1-adamantanemethylaminocarbonyl)-indole and regioisomer with substituents at positions 5 and 6 reversed [Example 49]”, the “CCKA pKi” value on CCKA is 5.6. The “CCKB pKi” value on CCKB receptor is given as 5.6.

`COC(=O)[C@@H]1CCCN1C(=O)c1cc2ccccc2cc1C(=O)NCC12CC3CC(CC(C3)C1)C2` [Example 6, 2-(2S-methoxycarbonylpyrrolidino-carbonyl)-3-(1-adamantanemethylaminocarbonyl)-naphthalene]: the Ki was 2510 nM at CCKA and 1000 nM at CCKB receptor. Take `COC(=O)c1cc(NC(=O)[C@H](Cc2ccccc2)NC(=O)c2cc3ccccc3cc2C(=O)NCC23CC4CC(CC(C4)C2)C3)cc(C(=O)OC)c1` [Example 17, 2-(1S-(3,5-dimethoxycarbonyl-phenylamino-carbonyl)-2-phenylethylaminocarbonyl)-3-(1-adamantanemethylaminocarbonyl)-naphthalene]: the Ki at CCKA was 15800 nM. With `COC(=O)c1cc(NC(=O)[C@H](Cc2ccccc2)NC(=O)c2cc3ccccc3cc2C(=O)NCC23CC4CC(CC(C4)C2)C3)cc(C(=O)O)c1` [Example 18, 2-(1S-(3-methoxycarbonyl-5-carboxyphenylaminocarbonyl)-2-phenylethylaminocarbonyl)-3-(1-adamantanemethylaminocarbonyl)-naphthalene], the Ki at CCKA was 501 nM.

As for `O=C(NCC12CC3CC(CC(C3)C1)C2)c1cc(Cl)c(Cl)cc1C(=O)N1CCC[C@@H]1C(=O)O` [Example 19, (2R-carboxypyrrolidino-carbonyl)-2-(1-adamantanemethylaminocarbonylmethyl)-4,5-dichlorobenzene], the Ki on CCKA was 5010 nM; at CCKB receptor, 2000 nM. Turning to `O=C(O)c1cccc2cccc(C(=O)NCC34CC5CC(CC(C5)C3)C4)c12` [Example 20, 1-(1-adamantanemethylaminocarbonyl)-8-naphthoic acid], the Ki at CCKA and on CCKB receptor was 10000 nM throughout. As for `Cn1ccc2cc(C(=O)N[C@@H](Cc3ccccc3)C(=O)Nc3cc(C(=O)O)cc(C(=O)O)c3)c(C(=O)NCC34CC5CC(CC(C5)C3)C4)cc21` [Example 36, 5-(1S-(3,5-dicarboxyphenylaminocarbonyl)-2-phenylethylaminocarbonyl)-6-(1-adamantanemethylaminocarbonyl)-N-methyl-indole], the Ki at CCKA is 3160 nM; at CCKB receptor, 0.398 nM. For `O=C(O)c1cc(NC(=O)[C@H](Cc2ccccc2)NC(=O)c2cc3ccn(S(=O)(=O)c4ccccc4)c3cc2C(=O)NCC23CC4CC(CC(C4)C2)C3)cc(C(=O)O)c1` [Example 45, 5-(1S-(3,5-dicarboxyphenylaminocarbonyl)-2-phenylethylaminocarbonyl)-6-(1-adamantanemethylamino-carbonyl)-N-phenylsulphonyl-indole], the “CCKA pKi” value on CCKA stood at 6.1. The “CCKB pKi” value on CCKB receptor is given as 7.1.

As to `O=C(O)c1cc(NC(=O)[C@H](Cc2ccccc2)NC(=O)c2cc3[nH]c4ccccc4c3cc2C(=O)NCC23CC4CC(CC(C4)C2)C3)cc(C(=O)O)c1` [Example 52, 2-(1S-(3,5-dicarboxyphenylaminocarbonyl)-2-phenylethylaminocarbonyl)-3-(1-adamantanemethylaminocarbonyl)-carbazole], the Ki at CCKA was 1260 nM; at CCKB receptor it was 63.1 nM. As to `O=C(NCC12CC3CC(CC(C3)C1)C2)c1cc2nc[nH]c2cc1C(=O)N[C@@H](Cc1ccccc1)C(=O)Nc1ccc(F)cc1` [Example 68, 5-(1S-(4-fluorophenylaminocarbonyl)-2-phenylethylaminocarbonyl)-6-(1-adamantanemethylaminocarbonyl)-benzimidazole], the Ki on CCKA and on CCKB receptor was 1260 nM in each case. Take `O=C(NCC12CC3CC(CC(C3)C1)C2)c1cc2nc[nH]c2cc1C(=O)N[C@@H](Cc1ccccc1F)C(=O)Nc1cc(-c2nn[nH]n2)cc(-c2nn[nH]n2)c1` [Example 84, 5-(1S-(3,5-ditetrazolylphenylaminocarbonyl)-2-(2-fluorophenyl)ethylaminocarbonyl)-6-(1-adamantanemethylaminocarbonyl)-benzimidazole]: the Ki at CCKA was 631 nM; at CCKB receptor, 2.51 nM.

For `O=C(NCC12CC3CC(CC(C3)C1)C2)c1cc2[nH]ccc2cc1C(=O)N[C@@H](Cc1ccccc1)C(=O)Nc1cc(NC(=O)C(F)(F)F)cc(NC(=O)C(F)(F)F)c1` [Example 94, 5-(1S-(3,5-di-trifluoromethylcarbonylaminophenylamino-carbonyl)-2-phenylethylaminocarbonyl)-6-(1-adamantanemethylaminocarbonyl)-indole], on CCKA, the “CCKA pKi” value turned out to be 5.0. In addition, the “CCKB pKi” value at CCKB receptor is given as 6.7. For the compound `NS(=O)(=O)c1cc(NC(=O)[C@H](Cc2ccccc2)NC(=O)c2cc3cc[nH]c3cc2C(=O)NCC23CC4CC(CC(C4)C2)C3)cc(S(N)(=O)=O)c1` [Example 96, 5-(1S-(3,5-di-aminosulphonylphenylaminocarbonyl)-2-phenylethylaminocarbonyl)-6-(1-adamantanemethylaminocarbonyl)-indole], the “CCKA pKi” value on CCKA amounted to 5.7. For the same compound, the “CCKB pKi” value on CCKB receptor stood at 6.3. Consider `CC(C)(C)C(=O)OCOC(=O)c1cc(NC(=O)[C@H](Cc2ccccc2)NC(=O)c2cc3ccoc3cc2C(=O)NCC23CC4CC(CC(C4)C2)C3)cc(C(=O)OCOC(=O)C(C)(C)C)c1` [Example 121, 5-(1S-(3,5-di-t-butylcarbonyloxymethyloxycarbonylphenylaminocarbonyl)-2-phenylethylaminocarbonyl)-6-(1-adamantanemethylaminocarbonyl)-benzofuran], for which the “CCKA pKi” value at CCKA was found to be 5.1.

The values are drawn from patent US5795907A, “Gastin and CCK receptor ligands” (James Black Foundation Limited, priority 1994, dated 1998).
